Assays:
Mecp2-deficient mice [1] = test: Lifespan (survival) study, oral cysteamine in drinking water; type: in vivo, mouse; details: cysteamine in drinking water 225 mg/kg/day from P30, mean±SEM, n=17, p<0.05 vs vehicle (65±2.2 days), Kaplan-Meir log-rank test
Method: Experiments were performed on Sprague dawley rats and B6.129P2(C)- MeCP2 tm1-1 Bird mouse model for RTT (Guy, J., Hendrich, B., Holmes, M., Martin, J. E., Bird, A. (2001) A mouse Mecp2-null mutation causes neurological symptoms that mimic Rett syndrome. Nat. Genet. 27, 322-326). The mice were obtained from the Jackson Laboratory and maintained on a C57BL/6 background. The rats were obtained from Charles River Laboratories, France. The experimental procedures were carried out in keeping with the European guidelines for the care and use of laboratory animals (Council Directive […]). For the mouse experiments, hemizygous mutant males (MeCP2^-/y) were generated by crossing heterozygous knockout females to C57BL/6 males. […]
From P30, animals received a cysteamine treatment in their drinking water (225 mg/kg/day) (Sigma-Aldrich; St-Quentin, France). […] Open-field activity was measured in an arena made of clear perspex (38×30 cm). The test session lasted 15 min with data recorded using the Ethovision 2.3.19 tracking system (Noldus Information Technology). Velocity (cm/s) and total distance moved (cm) were recorded. […]

Mecp2-deficient mice [2] = test: Open-field activity (total distance moved, velocity); type: in vivo, mouse
Method: Experiments were performed on Sprague dawley rats and B6.129P2(C)- MeCP2 tm1-1 Bird mouse model for RTT (Guy, J., Hendrich, B., Holmes, M., Martin, J. E., Bird, A. (2001) A mouse Mecp2-null mutation causes neurological symptoms that mimic Rett syndrome. Nat. Genet. 27, 322-326). The mice were obtained from the Jackson Laboratory and maintained on a C57BL/6 background. The rats were obtained from Charles River Laboratories, France. The experimental procedures were carried out in keeping with the European guidelines for the care and use of laboratory animals (Council Directive […]). For the mouse experiments, hemizygous mutant males (MeCP2^-/y) were generated by crossing heterozygous knockout females to C57BL/6 males. Genotyping was performed by routine PCR technique according to Jackson Laboratory protocols and as previously described (Viemari, J. C., Roux, J. C., Tryba, A. K., Saywell, V., Burnet, H., Peña, F., Zanella, S., Bévengut, M., Barthelemy-Requin, M., Herzing, L. B., Moncla, A., Mancini, J., Ramirez, J. M., Villard, L., Hilaire, G. (2005) Mecp2 deficiency disrupts norepinephrine and respiratory systems in mice. J. Neurosci. 25, 11521-11530).
From P30, animals received a cysteamine treatment in their drinking water (225 mg/kg/day) (Sigma-Aldrich; St-Quentin, France). Every 2 days, mice were weighted, cysteamine solution renewed and treatment consumption checked. […] Seventy-nine Mecp2 deficient mice were studied (lifespan study, n=17 cysteamine-treated and n=42 untreated; motor evaluation n=10 cysteamine-treated and n=10 untreated). The mice were assigned to each experimental group by an investigator who was blind to their genotype. Open-field activity was measured in an arena made of clear perspex (38×30 cm). The test session lasted 15 min with data recorded using the Ethovision 2.3.19 tracking system (Noldus Information Technology). Velocity (cm/s) and total distance moved (cm) were recorded. Velocity calculations on Ethovision were obtained using an input filter setting the minimal distance moved (0.6 cm) so that ambulations shorter than this value were never taken into account.

## NCCS [cysteamine]
Mecp2-deficient mice [1]
  life span: 74.8 ± 5.2 days
Mecp2-deficient mice [2]; Mecp2-deficient mice, chronic oral cysteamine vs placebo group, especially in the later stages
  locomotion in open field arena (total distance moved and velocity): significantly improved locomotion
Mecp2-deficient mice [2]; Mecp2-deficient mice, oral cysteamine vs vehicle, from P65, p<0.05, n=10 per group
  mouse velocity in open field: significantly increased
Mecp2-deficient mice [2]; Mecp2-deficient mice, oral cysteamine vs vehicle, from P75, n=10 per group
  total distance traveled in the open field arena during the 15-minute session: statistically increased
Mecp2-deficient mice [2]; P55, open field 15 min
  total distance, difference between cysteamine treated and placebo group: +3%
  velocity, difference between cysteamine treated and placebo group: +18%
Mecp2-deficient mice [2]; P65, open field 15 min
  total distance, difference between cysteamine treated and placebo group: +40%
  velocity, difference between cysteamine treated and placebo group: +33%
Mecp2-deficient mice [2]; P75, open field 15 min
  total distance, difference between cysteamine treated and placebo group: +128%
  velocity, difference between cysteamine treated and placebo group: +65%
Mecp2-deficient mice [2]; P85, open field 15 min
  total distance, difference between cysteamine treated and placebo group: +485%
  velocity, difference between cysteamine treated and placebo group: +74%
